Consider 4 molecules from patent US9877927B2, “Inhibitor of odor caused by Furaneol” (Kao Corporation, priority 2013, dated 2018).

Bounds are passed on as bounds.

In assay [1] the target is T1, olfactory receptor OR5K1 (Homo sapiens, UniProt Q8NHB7).
T1 construct: expressed in transfected cells; host or cells: HEK293
T1 sequence (Q8NHB7 1-308): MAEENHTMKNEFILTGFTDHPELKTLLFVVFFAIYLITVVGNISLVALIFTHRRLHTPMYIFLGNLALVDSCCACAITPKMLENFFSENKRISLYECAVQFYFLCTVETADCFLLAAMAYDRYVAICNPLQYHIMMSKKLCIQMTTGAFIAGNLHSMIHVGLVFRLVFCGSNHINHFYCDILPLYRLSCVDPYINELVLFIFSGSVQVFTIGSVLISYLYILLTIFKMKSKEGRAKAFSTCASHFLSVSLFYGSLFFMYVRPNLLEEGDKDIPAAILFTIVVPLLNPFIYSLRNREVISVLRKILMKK
Put plainly: Antagonistic activity against the response of OR5K1 to Furaneol (luciferase assay). The note with it: Furaneol 3 mM, test substance 100 μM, HEK293 cells expressing OR5K1; vs Furaneol alone; read-out: Rate of inhibition of the response of OR5K1 to Furaneol. Format: cell-based. Here is the method: Furaneol (3 mM) and each test substance (100 μM) were added to HEK293 cells allowed to express the olfactory receptor OR5K1 by the same procedures as in Example 2. The response of the olfactory receptor was measured to evaluate change in receptor response caused by the addition of the test substance.
The rate of inhibition of the receptor response by the test substance was calculated as follows: firefly luciferase-derived luminescence intensity (Y) in the olfactory receptor OR5K1-expressing cells without Furaneol stimulation was subtracted from luminescence intensity (X) induced by stimulation with Furaneol alone to determine receptor activity (X−Y) based on the stimulation with Furaneol alone. Likewise, the luminescence intensity (Y) in the cells without Furaneol stimulation was subtracted from luminescence intensity (Z) induced by stimulation with the mixture of Furaneol and the test substance to determine receptor activity (Z−Y) in the presence of the test substance. The rate of reduction in the receptor activity (Z−Y) in the presence of the test substance with respect to the receptor activity (X−Y) based on the stimulation with Furaneol alone was calculated according to an expression shown below to determine the rate of inhibition of the receptor response by the test substance. In this assay, a plurality of independent duplicate experiments were performed. An average of the experiments in each run was obtained. Rate of inhibition (%)={1−(Z−Y)/(X−Y)}×100

For assay [2], the target named is T1, olfactory receptor OR5K1. The experiment in a line: Luciferase reporter gene assay, response of olfactory receptor to Furaneol. It counts as cell-based. The text has this:
On the basis of sequence information registered in GenBank, each human olfactory receptor gene was cloned by PCR with Human Genomic DNA Female (G1521: Promega Corp.) as a template. Each gene thus amplified by PCR was inserted into a pENTR vector (Invitrogen Corp.) according to the manual. A NotI-AscI site present on the pENTR vector was recombined into a NotI-AscI site prepared downstream of a Flag-Rho tag sequence on a pME18S vector.
A gene (GenBank GI: 50234917) encoding a human receptor transporting protein, RTP1S was inserted into the EcoRI-XhoI site of the pME18S vector.
HEK293 cells expressing each of 400 types of human olfactory receptors were prepared. […]
The olfactory receptors expressed on the HEK293 cells are conjugated with intracellular Gas to activate adenylate cyclase, thereby increasing intracellular cAMP levels. In this study, their responses to Furaneol were measured using luciferase reporter gene assay which involved monitoring increase in intracellular cAMP level as luminescence intensity derived from a firefly luciferase gene (fluc2P-CRE-hygro). […]
A medium was removed from the cultures prepared in the preceding paragraph 3). […] The luciferase activity was measured using Dual-Glo™ luciferase assay system (Promega Corp.) according to the instruction manual of the product. […]

In the case of `CC(C)=CCCC(C)=CC=O` [Citral], the inhibition at 100 µM on olfactory receptor OR5K1 [1] is at least 75%.
The same measure, in the same setting: the same measure for `CC(=O)O[C@]1(C)CC[C@@]23C[C@@H]1C(C)(C)[C@@H]2CC[C@H]3C` [Cedryl acetate]: at least 50%.
For the molecule `CC1=C(O)C(=O)C(C)O1` (centres unmarked) [Furaneol, 2,5-dimethyl-4-hydroxy-3(2H)-furanone], the “Concentration dependence of OR5K1 response to Furaneol” value on olfactory receptor OR5K1 [2] (Furaneol 0, 3, 10, 30, 100, 300, 1000, 3000 μM, OR5K1 with human RTP1S in HEK293 cells) is “concentration-dependent response”. Further, the “Response of olfactory receptors to Furaneol (fold increase in luminescence)” value at olfactory receptor OR5K1 [2] (Furaneol 3 mM, 400 types of human olfactory receptors in HEK293 cells) is “only the olfactory receptor OR5K1 exhibited a response”.
Consider `CC(=O)c1cc2c(cc1C)C(C)(C)C(C)CC2(C)C` [Tonalid(R), 1-(5,6,7,8-tetrahydro-3,5,5,6,8,8-hexamethyl-2-naphthalenyl)-ethanone], for which the inhibition at 100 µM on olfactory receptor OR5K1 [1] was at least 75%.
